Source: ChEMBL document CHEMBL4699592, “Nature-Inspired (di)Azine-Bridged Bisindole Alkaloids with Potent Antibacterial In Vitro and In Vivo Efficacy against Methicillin-Resistant Staphylococcus aureus” (J Med Chem, 2020)
≈ marks a conversion by molar mass, not a printed value. Calls of active or inactive are those of the source. The rule behind the calls is not given here.

Tests used:
[1] = Selectivity index, ratio of IC50 for cytotoxicity against human THP-1 cells to MIC90 for antibacterial activity against […] Staphylococcus aureus ATCC 700699; type: toxicity, cell-based; conditions: read-out: Selectivity Index
MRC5 = assay: Cytotoxicity against human MRC5 cells assessed as reduction in cell viability at >=12.5 uM measured after 48 hrs by resazurin dye based fluorescence assay; conditions: mrc5, 48 h
THP-1 = assay: Cytotoxicity against human THP-1 cells assessed as reduction in cell viability at >=12.5 uM measured after 48 hrs by resazurin dye based fluorescence assay; conditions: thp-1, 48 h
Acinetobacter baumannii = assay: Antibacterial activity against Acinetobacter baumannii ATCC BAA-1605 at 0.78 to 100 uM after 24 hrs by broth microdilution method; type: functional, organism-based; conditions: dose microM 0.78-100, time 24.0 hrs
[2] = test system: Mycobacterium tuberculosis; assay: Antibacterial activity against Mycobacterium tuberculosis H37Rv at 0.78 to 100 uM after 5 days by resazurin dye based fluorescence assay; type: functional, organism-based; conditions: dose microM 0.78-100, time 5.0 day
Staphylococcus aureus [3] = assay: Antibacterial activity against […] Staphylococcus aureus ATCC 700699 after 24 hrs by broth microdilution method; type: functional
[4] = Solubility of compound in pH 7.7 PBS buffer; type: physicochemical
[5] = Selectivity index, ratio of IC50 for cytotoxicity against human MRC5 cells to MIC90 for antibacterial activity against […] Staphylococcus aureus ATCC 700699; type: toxicity, cell-based; conditions: read-out: Selectivity Index
Staphylococcus aureus [6] = assay: Bactericidal activity against […] Staphylococcus aureus ATCC 700699 assessed as reduction in bacterial viability at 5 fold MIC incubated for 6 hrs by time kill assay relative to control; type: functional
Staphylococcus aureus [7] = assay: Antibacterial activity against methicillin-resistant Staphylococcus aureus USA300 LAC at 0.15 to 25 uM incubated for 24 hrs under low glucose medium by resazurin dye based fluorescence assay; type: functional, organism-based; conditions: dose microM 0.15-25, time 24.0 hrs
Staphylococcus aureus [8] = assay: Antibacterial activity against methicillin-resistant Staphylococcus aureus USA300 LAC at 0.15 to 25 uM incubated for 24 hrs under low pyruvate containing medium by resazurin dye based fluorescence assay; type: functional, organism-based; conditions: dose microM 0.15-25, time 24.0 hrs
Staphylococcus aureus [9] = assay: Antibacterial activity against methicillin-resistant pyruvate kinase deficient Staphylococcus aureus USA300 LAC at 0.15 to 25 uM incubated for 24 hrs under low pyruvate containing medium by resazurin dye based fluorescence assay; type: functional, organism-based; conditions: dose microM 0.15-25, time 24.0 hrs
Enterococcus faecium [10] = assay: Antibacterial activity against vancomycin-resistant Enterococcus faecium ATCC 35667 at 0.78 to 100 uM after 24 hrs by broth microdilution method; type: functional, organism-based; conditions: dose microM 0.78-100, time 24.0 hrs
Enterococcus faecium [11] = assay: Antibacterial activity against vancomycin-resistant Enterococcus faecium ATCC 700221 at 0.78 to 100 uM after 24 hrs by broth microdilution method; type: functional, organism-based; conditions: dose microM 0.78-100, time 24.0 hrs
Enterococcus faecalis [12] = assay: Antibacterial activity against Enterococcus faecalis ATCC 51299 at 0.78 to 100 uM after 24 hrs by broth microdilution method; type: functional, organism-based; conditions: dose microM 0.78-100, time 24.0 hrs
Enterococcus faecalis [13] = assay: Antibacterial activity against Enterococcus faecalis ATCC 29212 at 0.78 to 100 uM after 24 hrs by broth microdilution method; type: functional, organism-based; conditions: dose microM 0.78-100, time 24.0 hrs
Staphylococcus aureus [14] = assay: Antibacterial activity against methicillin susceptible Staphylococcus aureus ATCC 25923 at 0.78 to 100 uM after 24 hrs by broth microdilution method; type: functional, organism-based; conditions: dose microM 0.78-100, time 24.0 hrs
Staphylococcus aureus [15] = assay: Bactericidal activity against […] Staphylococcus aureus ATCC 700699 assessed as colony forming units at 5 fold MIC measured after 24 hrs by time kill assay; type: functional
Staphylococcus aureus [16] = assay: Antibacterial activity against methicillin susceptible Staphylococcus aureus ATCC 25923 after 24 hrs by broth microdilution method; type: functional
Cell membrane [17] = assay: Induction of cell membrane permeabilization in methicillin resistant Staphylococcus aureus ATCC 700699 measured at 5 mins interval for 2 hrs by propidium iodide staining based fluorescence assay; type: subcellular
Cell membrane [18] = assay: Induction of cell membrane permeabilization in GFP-expressing Staphylococcus aureus ATCC 700699 assessed as increase in cellular ATP leakage at 5 fold MIC measured after 0.5 hrs by Bactiter-glo assay; type: subcellular

## Brc1ccc2[nH]cc(-c3cnc(-c4c[nH]c5ccc(Br)cc45)cn3)c2c1
[1]
  selectivity ratio: 8
MRC5
  Activity: Toxic
THP-1
  Activity: Toxic
Acinetobacter baumannii
  Activity: inactive
[2]
  Activity: inactive
Staphylococcus aureus [3]
  MIC90: 1.56 µM (≈ 0.73 µg/mL)
[4]
  solubility: Insoluble
[5]
  selectivity ratio: 8
Staphylococcus aureus [6]
  fold change (FC): 10000
Staphylococcus aureus [7]
  Activity: Active
Staphylococcus aureus [8]
  Activity: Active
Staphylococcus aureus [9]
  Activity: Active

## Oc1ccc2[nH]cc(-c3cnc(-c4c[nH]c5ccc(O)cc45)cn3)c2c1
Enterococcus faecium [10]
  Activity: inactive
Enterococcus faecium [11]
  Activity: inactive
Enterococcus faecalis [12]
  Activity: inactive
Enterococcus faecalis [13]
  Activity: inactive
Acinetobacter baumannii
  Activity: inactive
[2]
  Activity: inactive
Staphylococcus aureus [14]
  Activity: inactive
Staphylococcus aureus [3]
  MIC90: > 100 µM

## c1cc(-c2c[nH]c3ncccc23)nc(-c2c[nH]c3ncccc23)c1
Acinetobacter baumannii
  Activity: inactive
[2]
  Activity: inactive
Staphylococcus aureus [3]
  MIC90: > 100 µM

## Clc1ccc2[nH]cc(-c3ccc(-c4c[nH]c5ccc(Cl)cc45)nn3)c2c1
[1]
  selectivity ratio: 8
MRC5
  Activity: Toxic
THP-1
  Activity: Toxic
Acinetobacter baumannii
  Activity: inactive
[2]
  Activity: inactive
Staphylococcus aureus [3]
  MIC90: 0.78 µM (≈ 0.296 µg/mL)
[5]
  selectivity ratio: 8
Staphylococcus aureus [6]
  fold change (FC): 100
Staphylococcus aureus [15]
  Activity: <10 CFU/ml
Staphylococcus aureus [7]
  Activity: Active
Staphylococcus aureus [8]
  Activity: Active
Staphylococcus aureus [9]
  Activity: Active

## Brc1cc2[nH]cc(-c3cnc(-c4c[nH]c5cc(Br)c(Br)cc45)cn3)c2cc1Br
Acinetobacter baumannii
  Activity: inactive
[2]
  Activity: inactive
Staphylococcus aureus [3]
  MIC90: 1.56 µM (≈ 0.976 µg/mL)
Staphylococcus aureus [16]
  MIC: 1.56 µM (≈ 0.976 µg/mL)

## COc1ccc2[nH]cc(-c3cnc(-c4c[nH]c5ccc(OC)cc45)cn3)c2c1
Enterococcus faecium [10]
  Activity: inactive
Enterococcus faecium [11]
  Activity: inactive
Enterococcus faecalis [12]
  Activity: inactive
Enterococcus faecalis [13]
  Activity: inactive
Acinetobacter baumannii
  Activity: inactive
[2]
  Activity: inactive
Staphylococcus aureus [14]
  Activity: inactive
Staphylococcus aureus [3]
  MIC90: > 100 µM

## COc1ccc2[nH]cc(-c3cccc(-c4c[nH]c5ccc(OC)cc45)n3)c2c1
Acinetobacter baumannii
  Activity: inactive
[2]
  Activity: inactive
Staphylococcus aureus [3]
  MIC90: 12.5 µM (≈ 4.62 µg/mL)

## Fc1ccc2[nH]cc(-c3cnc(-c4c[nH]c5ccc(F)cc45)cn3)c2c1
Acinetobacter baumannii
  Activity: inactive
[2]
  Activity: inactive
Staphylococcus aureus [3]
  MIC90: > 100 µM

## CC(=O)NC[C@H]1CN(c2ccc(N3CCOCC3)c(F)c2)C(=O)O1
Cell membrane [17]
  Activity: inactive
Cell membrane [18]
  Activity: inactive

## c1ccc2c(-c3cnc(-c4c[nH]c5ccccc45)cn3)c[nH]c2c1
Acinetobacter baumannii
  Activity: inactive
[2]
  Activity: inactive
Staphylococcus aureus [3]
  MIC90: > 100 µM

## c1cc(-c2c[nH]c3ccccc23)nc(-c2c[nH]c3ccccc23)c1
Acinetobacter baumannii
  Activity: inactive
[2]
  Activity: inactive
Staphylococcus aureus [3]
  MIC90: > 100 µM
